Results taken from patent US11198673B2, “Therapeutic compounds and compositions” (eXIthera Pharmaceuticals, Inc., priority 2014, dated 2021).
pIC50: −log10 of the molar value.

What was measured:
Thrombin = molecular target: T1, Thrombin (Homo sapiens, UniProt P00734); assay: Dose response assay for protease inhibitors: thrombin (FXIa fold selectivity); type: biochemical; conditions: fold selectivity for FXIa over thrombin
T1 construct: Thrombin; 0.2 μM in 50% glycerol (7.34 μg/mL)
Method: (§1) • Assay buffer: 20 mM Hepes, pH 7.4; 150 mM NaCl; 0.02% Tween 20 • Compounds: 10 mM stocks in DMSO • Substrate: 20 mM Glp-Pro-Arg-AMC, 25 mg/2.3 mL H2O (store at +4° C.) [Factor XIa, thrombin, and trypsin] • 20 mM Pro-Phe-Arg-AMC (Bachem I-1295), 25 mg/2.2 mL H2O (store at +4° C.) [Factor Xa] • Enzyme: Factor XIa; 0.25 μM in 50% glycerol (20 μg/mL) • Trypsin; 0.2 μM in 50% glycerol (4.8 μg/mL) • Thrombin; 0.2 μM in 50% glycerol (7.34 μg/mL) • Factor Xa; 0.2 μM in 50% glycerol (9.2 μg/mL) • These stocks are aliquoted ([…]) and stored at −20° C. Methods: • 1. Dilute the substrate to 100 μM in assay buffer (30 μL/6 mL). The enzyme is diluted to 0.5 nM just prior to use (12 μL/6 mL for Factor XIa; 15 μL/6 mL for all of the rest.) • 2. Pipette 50 μL of substrate into each well of the 96 well (12×8) microtiter plate. (Column 1 is used as the 100% activity control and receives no compound, and Column 12 is the blank and receives no enzyme.) Add an additional 46 μL to column 2. • 3. Pipette 4 μL of each compound into the appropriate well in column 2 of the plate (unknowns assayed in triplicate, standard assayed in duplicate). The final compound concentration will be 1/50th of the stock. • 4. Serially two-fold dilute the compound by mixing the sample in column 2, removing 50 μL to the next well (column 3), mix and remove to column 4, etc. until column 11. After mixing column 11, remove 50 μL and discard. • 5. Pipette 50 μL of buffer into column 12. Initiate the reaction by adding 50 μL of enzyme solution to each well of columns 1-11 as rapidly as possible. • 6. Read the plate in a spectrophotometer (SpectraMax) at 30° C., wherein each well is measured every 60 s for 30 min. For Factor Xa assays, each well is measured every 1 min for a total of 60 min. • 7. For Factor XIa assays, the compounds are assayed, in duplicate, at 3 different starting concentrations, 20, 2, and 0.2 μM; 1:10, 1:100, and 1:1000 dil'n of 10 mM stock. All data sets are combined for graphing and data fitting. • 8. Data can be used both for estimation of IC50 and for estimation of Kon.

[1] = β-Lactam stability in rat plasma; type: in vitro ADME; conditions: normal rat plasma, room temperature; read-out: Rat Plasma Stability (T1/2; min)
Method: Normal rat plasma, stored at −80° C.
• 1. Place 6 μL of each compound into 0.5 mL microcentrifuge tubes or 96-well U-bottom, polypropylene microtiter plate • 2. Place 40 μL of acetonitrile (AcN) into 0.5 mL microcentrifuge tubes labeled 1-9 • 3. Add 114 μL of plasma to each compound • 4. Sample 10 μL of compound/plasma into AcN at 2, 10, 20, 30, 60, 90, 120, 240, and 480 min of incubation at room temperature • 5. Mix each time point after adding sample and place on ice. • 6. Centrifuge time points (12,000 rpm, 3 min), remove 15 μL of the supernatant and mix with 15 μL 0.1% TFA in a V-bottom microtiter plate. • 7. Place microtiter plate in autosampler of HPLC and analyze on Restek Pinnacle C18 column (2.1×100 mm). • 8. Generate extracted ion chromatogram for parent compound and parent compound+18 (H2O). Integrate extracted ion chromatograms (EIC) and plot % total peak area for parent and adduct versus time. Fit to a model of single phase exponential decay [Y=A0*exp(−k*x)+C]. T½ is equal to ln(2)/k.

Trypsin = assay: Dose response assay for protease inhibitors: trypsin (FXIa fold selectivity); type: biochemical; conditions: fold selectivity for FXIa over trypsin
Method: as §1

human Factor XIa = molecular target: T2, human Factor XIa (Homo sapiens, UniProt P03951); assay: Factor XIa enzyme inhibition assay (IC50, purified enzyme); type: biochemical; conditions: purified enzyme 0.25 nM, substrate 50 μM; read-out: Potency hFXIa IC50
T2 construct: Enzyme: Factor XIa; 0.25 μM in 50% glycerol (20 μg/mL)
Method: as §1
Potential inhibitors of Factor XIa were evaluated using the following assay.
S-2366, pyroGlu-Pro-Arg-7-methylaminocourin (AMC), available from CPC Scientific, Inc., is based on the substrate pyro-Glu-Pro-Arg-pNA, available from Diapharma Group, Inc. (Columbus, Ohio), where the p-nitroanaline group is replaced with 7-methylaminocoumarin (AMC).
The final concentration of the substrate in the assay was 50 μM, and the final concentration of the enzyme was 0.25 nM. Inhibitors were tested by serial dilution over an appropriate range to yield a dose response curve for determination of the inhibitors' IC50 value. The assay mixture was read every minute for 30 minutes in order to generate progress curves. The plates were read in a Spectramax m5 Multimode Plate Reader (Molecular Devices LLC, Sunnyvale, Calif.). Dose response curves were fit to Equation 1 below in which A is the maximum inhibition, B is the minimum inhibition, C is the IC50, and D is the Hill coefficient. [(A−B)/(1+(X/C)^D)]+B (Equation 1)

Factor Xa = molecular target: T3, Factor Xa (Homo sapiens, UniProt P00742); assay: Dose response assay for protease inhibitors: Factor Xa (FXIa fold selectivity); type: biochemical; conditions: fold selectivity for FXIa over Factor Xa
T3 construct: Factor Xa; 0.2 μM in 50% glycerol (9.2 μg/mL)
Method: as §1

T2 sequence (P03951 388-625 limits assumed): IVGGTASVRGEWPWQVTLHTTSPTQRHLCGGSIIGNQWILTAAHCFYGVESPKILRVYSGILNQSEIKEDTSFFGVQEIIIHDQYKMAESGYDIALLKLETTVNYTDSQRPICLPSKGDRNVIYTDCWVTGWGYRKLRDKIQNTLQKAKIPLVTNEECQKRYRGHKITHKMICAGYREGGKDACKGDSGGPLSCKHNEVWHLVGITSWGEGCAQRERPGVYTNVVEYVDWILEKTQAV
T2 sequence (P03951 19-387 partner limits assumed): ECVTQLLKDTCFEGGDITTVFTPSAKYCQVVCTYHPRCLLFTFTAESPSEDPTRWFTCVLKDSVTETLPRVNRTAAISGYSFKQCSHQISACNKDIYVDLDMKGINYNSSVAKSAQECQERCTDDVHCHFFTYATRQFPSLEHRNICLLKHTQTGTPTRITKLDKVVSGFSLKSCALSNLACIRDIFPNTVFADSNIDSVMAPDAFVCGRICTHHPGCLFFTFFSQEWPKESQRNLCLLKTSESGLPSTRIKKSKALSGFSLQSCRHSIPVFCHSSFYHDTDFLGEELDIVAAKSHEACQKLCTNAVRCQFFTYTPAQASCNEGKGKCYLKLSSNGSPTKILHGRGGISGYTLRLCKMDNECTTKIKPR
T3 sequence (P00742 235-488 limits assumed): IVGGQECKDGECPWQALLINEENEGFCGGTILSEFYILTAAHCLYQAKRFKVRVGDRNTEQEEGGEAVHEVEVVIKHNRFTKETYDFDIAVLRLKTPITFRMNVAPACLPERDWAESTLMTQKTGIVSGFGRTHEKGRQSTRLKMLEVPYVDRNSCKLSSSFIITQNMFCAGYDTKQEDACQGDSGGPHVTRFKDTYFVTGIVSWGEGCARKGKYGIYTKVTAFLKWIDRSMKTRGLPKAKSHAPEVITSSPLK
T3 sequence (P00742 41-179 partner limits assumed): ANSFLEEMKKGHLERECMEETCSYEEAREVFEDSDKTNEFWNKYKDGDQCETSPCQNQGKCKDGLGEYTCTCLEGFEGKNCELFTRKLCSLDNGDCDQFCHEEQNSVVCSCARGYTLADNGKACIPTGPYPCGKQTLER

Row | Compound | FXIa Fold Selectivity Thrombin (Thrombin) | half-life [1] | FXIa Fold Selectivity Trypsin (Trypsin) | pIC50 (human Factor XIa) | FXIa Fold Selectivity FXa (Factor Xa)
1 | C[C@@H](NC(=O)N1C(=O)[C@H](Cc2ccnc(N)c2)[C@H]1C(=O)O)c1cccnc1 [Example 40] | I (“I” indicates >1000) | > 100 min | I (“I” indicates >1000) | 7.00 to 8.00 | I (“I” indicates >1000)
2 | CC(NC(=O)N1C(=O)[C@H](Cc2ccnc(N)c2)[C@H]1C(=O)O)c1cccc(F)c1 (some centres unmarked) [Example 42] | I (“I” indicates >1000) | > 100 min | H (“H” indicates 500-1000) | > 8.00 | I (“I” indicates >1000)
3 | Nc1cc(C[C@H]2C(=O)N(C(=O)NCc3cccc4ccccc34)[C@@H]2C(=O)O)ccn1 [Example 43] | G (“G” indicates 1-500) | > 100 min | G (“G” indicates 1-500) | 7.00 to 8.00 | G (“G” indicates 1-500)
4 | Nc1cc(C[C@H]2C(=O)N(C(=O)N[C@@H](c3ccccc3)C(F)(F)F)[C@@H]2C(=O)O)ccn1 [Example 44] | I (“I” indicates >1000) | > 100 min | G (“G” indicates 1-500) | > 8.00 | I (“I” indicates >1000)
5 | CC(NC(=O)N1C(=O)[C@H](Cc2ccnc(N)c2)[C@H]1C(=O)O)c1ccc(OC(F)(F)F)cc1 (some centres unmarked) [Example 47] | I (“I” indicates >1000) | > 100 min | H (“H” indicates 500-1000) | > 8.00 | I (“I” indicates >1000)
6 | Nc1cc(C[C@H]2C(=O)N(C(=O)NCc3ccccc3)[C@@H]2C(=O)O)ccn1 [Example 48] | G (“G” indicates 1-500) | > 100 min | G (“G” indicates 1-500) | 6.00 to 7.00 | G (“G” indicates 1-500)
7 | C[C@@H](NC(=O)N1C(=O)[C@H](Cc2ccnc(N)c2)[C@H]1C(=O)O)c1cccc(OC(F)(F)F)c1 [Example 49] | I (“I” indicates >1000) | > 100 min | G (“G” indicates 1-500) | > 8.00 | H (“H” indicates 500-1000)
8 | CCCC(CCC)NC(=O)N1C(=O)[C@H](Cc2ccnc(N)c2)[C@H]1C(=O)O [Example 52] | I (“I” indicates >1000) | > 100 min | G (“G” indicates 1-500) | 7.00 to 8.00 | H (“H” indicates 500-1000)
9 | CON=C[C@@H]1[C@@H](Cc2ccnc(N)c2)C(=O)N1C(=O)N[C@H](C)c1ccccc1 [Example 53] | G (“G” indicates 1-500) | < 100 min | G (“G” indicates 1-500) | 7.00 to 8.00 | G (“G” indicates 1-500)
10 | CNC(=O)N1C(=O)[C@H](Cc2ccnc(N)c2)[C@H]1C(=O)O [Example 55] | G (“G” indicates 1-500) | > 100 min | G (“G” indicates 1-500) | < 6.00 | G (“G” indicates 1-500)
11 | C[C@@H](NC(=O)N1C(=O)[C@H](Cc2ccnc(N)c2)[C@H]1C(=O)O)c1ccc(F)c(F)c1 [Example 68] | I (“I” indicates >1000) | > 100 min | I (“I” indicates >1000) | > 8.00 | G (“G” indicates 1-500)
12 | CCC[C@@H](NC(=O)N1C(=O)[C@H](Cc2ccnc(N)c2)[C@H]1C(=O)O)c1ccc2c(c1)OC(F)(F)O2 [Example 89] | I (“I” indicates >1000) | > 100 min | G (“G” indicates 1-500) | > 8.00 | G (“G” indicates 1-500)
13 | CNc1cc(C[C@H]2C(=O)N(C(=O)N[C@H](C)c3ccc4c(c3)OC(F)(F)O4)[C@@H]2C(=O)O)ccn1 [Example 98] | I (“I” indicates >1000) | > 100 min | I (“I” indicates >1000) | > 8.00 | G (“G” indicates 1-500)
14 | CCOC(=O)[C@@H]1[C@@H](Cc2ccnc(NC)c2)C(=O)N1C(=O)N[C@H](C)c1ccc2c(c1)OC(F)(F)O2 [Example 99] | I (“I” indicates >1000) | < 100 min | G (“G” indicates 1-500) | > 8.00 | I (“I” indicates >1000)
15 | CCOC(=O)[C@@H]1[C@@H](Cc2ccnc(N)c2)C(=O)N1C(=O)N[C@H](C)c1ccc(OC(F)(F)F)cc1 [Example 103] | H (“H” indicates 500-1000) | < 100 min | G (“G” indicates 1-500) | > 8.00 | I (“I” indicates >1000)
16 | C[C@@H](NC(=O)N1C(=O)[C@H](Cc2ccnc(N)c2)[C@H]1C(=O)O)C1CCCCCCC1 [Example 104] | I (“I” indicates >1000) | > 100 min | I (“I” indicates >1000) | > 8.00 | I (“I” indicates >1000)
17 | O=C(O)[C@@H]1[C@@H](Cc2ccncc2)C(=O)N1C(=O)NC(c1ccccc1)c1ccccc1 [Example 123] | G (“G” indicates 1-500) | > 100 min | G (“G” indicates 1-500) | 6.00 to 7.00 | G (“G” indicates 1-500)
18 | C[C@H](NC(=O)N1C(=O)[C@H](Cc2ccnc(N)c2)[C@H]1C(=O)O)c1ccc2c(c1)OC(F)(F)O2 [Example 130] | G (“G” indicates 1-500) | > 100 min | G (“G” indicates 1-500) | 6.00 to 7.00 | G (“G” indicates 1-500)
19 | CCOC(=O)[C@@H]1C(Cc2ccnc(Cl)c2)C(=O)N1C(=O)N[C@H](C)c1ccc2c(c1)OC(F)(F)O2 (some centres unmarked) [Example 132] | G (“G” indicates 1-500) | < 100 min | G (“G” indicates 1-500) | 6.00 to 7.00 | G (“G” indicates 1-500)
